Measured values taken from ChEMBL document CHEMBL4261654, “Synthesis and in vitro antitumor activity of novel alkenyl derivatives of pyridoxine, bioisosteric analogs of feruloyl methane” (Bioorg Med Chem, 2018).
The source made the active and inactive calls. No cut-off for these calls is given here.

Assays:
MCF7 [1] = assay: Antiproliferative activity against human MCF7 cells after 72 hrs by MTT assay; format: functional, cell-based; details: MCF7, 72 h
HEK293 = assay: Antiproliferative activity against human HEK293 cells after 72 hrs by MTT assay; format: cell-based; details: HEK293, 72 h
PC-3 [2] = assay: Induction of apoptosis in human PC3 cells assessed as intracellular ROS levels by measuring fluoresence intensity at 20 uM after 24 hrs by DCFH-DA staining-based flow cytometric analysis (reference value: 3176 +/- 398); format: functional
PC-3 [3] = assay: Induction of mitochondrial membrane potential loss in human PC3 cells assessed as fluorescence intensity at 10 uM after 24 hrs by TMRE dye-based flow cytometric analysis (reference value: 10101 +/- 853); format: functional
PC-3 [4] = assay: Antiproliferative activity in human PC3 cells at 0.2 to 2 uM measured during 120 hrs each 15 mins by RTCA DP based cellular impedance analysis; format: functional, cell-based
MDA-MB-231 [5] = assay: Potency index, ratio of compound IC50 to dehydrozingerone IC50 for antiproliferative activity against human MDA-MB-231 cells; format: functional
PC-3 [6] = assay: Induction of apoptosis in human PC3 cells assessed as viable cells at 10 uM after 24 hrs by Annexin V-PE/7-AAD staining-based flow cytometric analysis (reference value: 70%); format: functional; details: PC-3, 24 h, read-out: Activity
PC-3 [7] = assay: Induction of mitochondrial membrane potential loss in human PC3 cells assessed as fluorescence intensity at 20 uM after 24 hrs by TMRE dye-based flow cytometric analysis (reference value: 10101 +/- 853); format: functional
PC-3 [8] = assay: Cell cycle arrest in human PC3 cells assessed as accumulation at G0/G1 phase at 2 uM after 72 hrs by RNase/propidium iodide staining-based flow cytometric analysis (reference value: 61 +/- 3%); format: functional
A498 [9] = assay: Antiproliferative activity against human A498 cells after 72 hrs by MTT assay; format: functional, cell-based; details: A498, 72 h
SNB-19 [10] = assay: Potency index, ratio of compound IC50 to dehydrozingerone IC50 for antiproliferative activity against human SNB19 cells; format: functional
HCT-116 [11] = assay: Antiproliferative activity against human HCT116 cells after 72 hrs by MTT assay; format: functional, cell-based; details: HCT-116, 72 h
MDA-MB-231 [12] = assay: Antiproliferative activity against human MDA-MB-231 cells after 72 hrs by MTT assay; format: functional, cell-based; details: MDA-MB-231, 72 h
SNB-19 [13] = assay: Antiproliferative activity against human SNB19 cells after 72 hrs by MTT assay; format: functional, cell-based; details: SNB-19, 72 h
PC-3 [14] = assay: Induction of apoptosis in human PC3 cells assessed as late apoptotic cells at 10 uM after 24 hrs by Annexin V-PE/7-AAD staining-based flow cytometric analysis (reference value: 8%); format: functional
NCI-H322M [15] = assay: Antiproliferative activity against human NCI-H322M cells after 72 hrs by MTT assay; format: functional, cell-based
[16] = Ratio of compound IC50 to dehydrozingerone IC50 for antiproliferative activity against HSF cells; format: cell-based; details: human, read-out: Ratio IC50
PC-3 [17] = assay: Induction of apoptosis in human PC3 cells assessed as early apoptotic cells at 30 uM after 24 hrs by Annexin V-PE/7-AAD staining-based flow cytometric analysis (reference value: 2%); format: functional
PC-3 [18] = assay: Induction of apoptosis in human PC3 cells assessed as intracellular ROS levels by measuring fluoresence intensity at 10 uM after 24 hrs by DCFH-DA staining-based flow cytometric analysis (reference value: 3176 +/- 398); format: functional
OVCAR-4 [19] = assay: Antiproliferative activity against human OVCAR4 cells after 72 hrs by MTT assay; format: functional, cell-based; details: OVCAR-4, 72 h
PC-3 [20] = assay: Cell cycle arrest in human PC3 cells assessed as accumulation at G0/G1 phase at 10 uM after 72 hrs by RNase/propidium iodide staining-based flow cytometric analysis (reference value: 61 +/- 3%); format: functional
NCI-H322M [21] = assay: Potency index, ratio of compound IC50 to dehydrozingerone IC50 for antiproliferative activity against human NCI-H322M cells; format: functional
PC-3 [22] = assay: Induction of mitochondrial membrane potential loss in human PC3 cells assessed as fluorescence intensity at 30 uM after 24 hrs by TMRE dye-based flow cytometric analysis (reference value: 10101 +/- 853); format: functional
M14 [23] = assay: Antiproliferative activity against human M14 cells after 72 hrs by MTT assay; format: functional, cell-based; details: M14, 72 h
PC-3 [24] = assay: Antimigratory activity in human PC3 cells at 2 uM measured during 120 hrs each 15 mins by RTCA DP based cellular impedance analysis; format: functional
M14 [25] = assay: Potency index, ratio of compound IC50 to dehydrozingerone IC50 for antiproliferative activity against human M14 cells; format: functional
PC-3 [26] = assay: Induction of apoptosis in human PC3 cells assessed as intracellular ROS levels by measuring fluoresence intensity at 30 uM after 24 hrs by DCFH-DA staining-based flow cytometric analysis (reference value: 3176 +/- 398); format: functional
PC-3 [27] = assay: Antimigratory activity in human PC3 cells at 0.2 uM measured during 120 hrs each 15 mins by RTCA DP based cellular impedance analysis; format: functional
[28] = Antiproliferative activity against HSF cells after 72 hrs by MTT assay; format: cell-based; details: Homo sapiens
HCT-15 [29] = assay: Potency index, ratio of compound IC50 to dehydrozingerone IC50 for antiproliferative activity against human HCT15 cells; format: functional
HCT-15 [30] = assay: Antiproliferative activity against human HCT15 cells after 72 hrs by MTT assay; format: functional, cell-based; details: HCT-15, 72 h
PC-3 [31] = assay: Induction of apoptosis in human PC3 cells assessed as early apoptotic cells at 10 uM after 24 hrs by Annexin V-PE/7-AAD staining-based flow cytometric analysis (reference value: 2%); format: functional
[32] = Antioxidant activity assessed as ferric ion reducing activity at 20 to 320 umol after 20 mins by FRAP assay; format: functional
PC-3 [33] = assay: Induction of apoptosis in human PC3 cells assessed as necrotic cells at 30 uM after 24 hrs by Annexin V-PE/7-AAD staining-based flow cytometric analysis (reference value: 14%); format: functional
MCF7 [34] = assay: Potency index, ratio of compound IC50 to dehydrozingerone IC50 for antiproliferative activity against human MCF7 cells; format: functional
PC-3 [35] = assay: Cell cycle arrest in human PC3 cells assessed as accumulation at G2/M phase at 2 uM after 72 hrs by RNase/propidium iodide staining-based flow cytometric analysis (reference value: 20 +/- 3%); format: functional
PC-3 [36] = assay: Antiproliferative activity in human PC3 cells at 10 uM measured after 120 hrs measured each 15 mins by RTCA DP based cellular impedance analysis; format: functional
PC-3 [37] = assay: Cell cycle arrest in human PC3 cells assessed as accumulation at G2/M phase at 10 uM after 72 hrs by RNase/propidium iodide staining-based flow cytometric analysis (reference value: 20 +/- 3%); format: functional
PC-3 [38] = assay: Potency index, ratio of compound IC50 to dehydrozingerone IC50 for antiproliferative activity against human PC3 cells; format: functional
PC-3 [39] = assay: Antimigratory activity in human PC3 cells at 10 uM measured during 120 hrs each 15 mins by RTCA DP based cellular impedance analysis; format: functional
PC-3 [40] = assay: Induction of apoptosis in human PC3 cells assessed as viable cells at 30 uM after 24 hrs by Annexin V-PE/7-AAD staining-based flow cytometric analysis (reference value: 70%); format: functional; details: PC-3, 24 h, read-out: Activity
PC-3 [41] = assay: Induction of apoptosis in human PC3 cells assessed as necrotic cells at 10 uM after 24 hrs by Annexin V-PE/7-AAD staining-based flow cytometric analysis (reference value: 14%); format: functional
PC-3 [42] = assay: Antiproliferative activity against human PC3 cells after 72 hrs by MTT assay; format: functional, cell-based; details: PC-3, 72 h
[43] = Selectivity index, ratio of IC50 for HSF cells to IC50 for human MCF7 cells; format: toxicity; details: HSF cells versus MCF7 cells, read-out: Ratio IC50
PC-3 [44] = assay: Cell cycle arrest in human PC3 cells assessed as accumulation at S phase at 2 uM after 72 hrs by RNase/propidium iodide staining-based flow cytometric analysis (reference value: 17 +/- 1%); format: functional
PC-3 [45] = assay: Induction of apoptosis in human PC3 cells assessed as late apoptotic cells at 30 uM after 24 hrs by Annexin V-PE/7-AAD staining-based flow cytometric analysis (reference value: 8%); format: functional
HCT-116 [46] = assay: Potency index, ratio of compound IC50 to dehydrozingerone IC50 for antiproliferative activity against human HCT116 cells; format: functional
OVCAR-4 [47] = assay: Potency index, ratio of compound IC50 to dehydrozingerone IC50 for antiproliferative activity against human OVCAR4 cells; format: functional
PC-3 [48] = assay: Cell cycle arrest in human PC3 cells assessed as accumulation at S phase at 10 uM after 72 hrs by RNase/propidium iodide staining-based flow cytometric analysis (reference value: 17 +/- 1%); format: functional
A498 [49] = assay: Potency index, ratio of compound IC50 to dehydrozingerone IC50 for antiproliferative activity against human A498 cells; format: functional

Structure (SMILES): CC(=O)/C=C/c1cnc(C)c2c1COC(C(C)(C)C)O2 (stereo unspecified)
- IC50 (MCF7 [1]): 4.1 µM
- IC50 (HEK293): 1.2 µM

Structure (SMILES): CC(=O)/C=C/c1cnc(C)c2c1COC1(CCCC1)O2
- IC50 (MCF7 [1]): 7.2 µM
- IC50 (HEK293): 17 µM

Structure (SMILES): CCCCC1OCc2c(/C=C/C(C)=O)cnc(C)c2O1 (stereo unspecified)
- IC50 (MCF7 [1]): 1.3 µM
- IC50 (HEK293): 13 µM

Structure (SMILES): CC(=O)/C=C/c1cnc(C)c2c1COC1(CCCCC1)O2
- Flu intensity (PC-3 [2]): 4486
- Flu intensity (PC-3 [3]): 9999
- Activity (PC-3 [4]): inactive
- Ratio IC50 (MDA-MB-231 [5]): 7 - 211
- viability at 10 µM (PC-3 [6]): 63%
- Flu intensity (PC-3 [7]): 10524
- Activity (PC-3 [8]): 61%
- IC50 (A498 [9]): 6.5 µM
- Ratio IC50 (SNB-19 [10]): 7 - 211
- IC50 (HCT-116 [11]): 2.8 µM
- IC50 (MDA-MB-231 [12]): 1.8 µM
- IC50 (SNB-19 [13]): 4.7 µM
- Activity (PC-3 [14]): 16%
- IC50 (NCI-H322M [15]): 4.6 µM
- selectivity ratio [16]: 7 to 211
- Activity (PC-3 [17]): 3%
- Flu intensity (PC-3 [18]): 3680
- IC50 (OVCAR-4 [19]): 19 µM
- Activity (PC-3 [20]): 52%
- Ratio IC50 (NCI-H322M [21]): 7 - 211
- Flu intensity (PC-3 [22]): 7587
- IC50 (M14 [23]): 2.6 µM
- inhibition at 2 µM (PC-3 [24]): 27%
- IC50 (MCF7 [1]): 1.1 µM
- Ratio IC50 (M14 [25]): 7 - 211
- Flu intensity (PC-3 [26]): 3085
- inhibition at 0.2 µM (PC-3 [27]): 11%
- IC50 [28]: 15.6 µM
- Ratio IC50 (HCT-15 [29]): 7 - 211
- IC50 (HCT-15 [30]): 1.5 µM
- Activity (PC-3 [31]): 3%
- Activity [32]: inactive
- Activity (PC-3 [33]): 6%
- IC50 (HEK293): 16 µM
- Ratio IC50 (MCF7 [34]): 7 - 211
- Activity (PC-3 [35]): 19%
- inhibition at 10 µM (PC-3 [36]): 25%
- Activity (PC-3 [37]): 29%
- Ratio IC50 (PC-3 [38]): 7 - 211
- inhibition at 10 µM (PC-3 [39]): 47%
- viability at 30 µM (PC-3 [40]): 39%
- Activity (PC-3 [41]): 17%
- IC50 (PC-3 [42]): 5.5 µM
- selectivity ratio [43]: 14.2
- Activity (PC-3 [44]): 18%
- Activity (PC-3 [45]): 52%
- Ratio IC50 (HCT-116 [46]): 7 - 211
- Ratio IC50 (OVCAR-4 [47]): 7 - 211
- Activity (PC-3 [48]): 17%
- Ratio IC50 (A498 [49]): 7 - 211

Structure (SMILES): O=C1O[C@H]([C@@H](O)CO)C(O)=C1O
- Activity [32]: Active

Structure (SMILES): CC(=O)/C=C/c1cnc(C)c2c1COC(C)(C)O2
- IC50 (MCF7 [1]): 6.6 µM
- IC50 (HEK293): 17 µM

Structure (SMILES): COc1cccc2c1C(=O)c1c(O)c3c(c(O)c1C2=O)C[C@@](O)(C(=O)CO)C[C@@H]3O[C@H]1C[C@H](N)[C@H](O)[C@H](C)O1 [DOXORUBICIN]
- IC50 (A498 [9]): 6.1 µM
- IC50 (HCT-116 [11]): 0.4 µM
- IC50 (MDA-MB-231 [12]): 0.3 µM
- IC50 (SNB-19 [13]): 0.15 µM
- IC50 (NCI-H322M [15]): 29 µM
- IC50 (OVCAR-4 [19]): 0.15 µM
- IC50 (M14 [23]): 3.4 µM
- IC50 [28]: 2.2 µM
- IC50 (HCT-15 [30]): 2.2 µM
- IC50 (HEK293): 1.2 µM
- IC50 (PC-3 [42]): 0.23 µM

Structure (SMILES): O=c1c(O)c(-c2ccc(O)c(O)c2)oc2cc(O)cc(O)c12
- Activity [32]: Active
